Laboratory results reported in patent US20180320177A1, “COMPOSITIONS AND METHODS FOR THE TREATMENT OF LIVER FIBROSIS” (UNIVERSITY OF CONNECTICUT, priority 2015, published 2018).

What was measured:
HMGB1 protein = target: T1, HMGB1 protein (Mus musculus, UniProt P63158); assay: Western blot of HMGB1 protein in liver of CCl4-treated mice; assay type: in vivo; details: CCl4+ICM (FIG. 16)
T1 construct: Total protein lysates were prepared from livers and cells in lysis buffer; from tissue; host or cells: mouse liver
T1 sequence (P63158 1-215): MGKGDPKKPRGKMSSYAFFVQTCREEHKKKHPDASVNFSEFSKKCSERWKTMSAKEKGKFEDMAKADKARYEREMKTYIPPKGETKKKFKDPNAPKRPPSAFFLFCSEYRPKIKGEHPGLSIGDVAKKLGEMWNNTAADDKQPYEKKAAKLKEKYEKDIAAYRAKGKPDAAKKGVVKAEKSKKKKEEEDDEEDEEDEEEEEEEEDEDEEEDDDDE
Description: Animal Care: All animal care and experimental procedures were approved by the Institutional Animal Care and Use Committee at the University of Connecticut. Shp^−/− mice were described previously. Hmgb2^−/− mice were obtained from Dr. Stella Tsirka at Stony Brook University. C57BL/6J mice were purchased from Jackson Laboratory. All mice were maintained on a 12-h light/dark cycle with free access to food and water unless otherwise indicated. For CCl4 treatment, CCl4 (Sigma) was dissolved in corn oil and administered to mice at a dose of 850 μl/kg BW by intraperitoneal injection (IP) twice a week for 6 or 10 weeks with or without ICM. Age-matched control mice were treated with a corn oil vehicle. For CCl4+ICM treatment, mice were treated with CCl4 for 2 weeks and then ICM (Department of Pharmaceutical Sciences at UConn) was dissolved in PEG (Sigma) and treated with mice (10 mg/kg) every day for 4 or 8 weeks in combination with CCl4. To induce overexpression of HMGB2 in liver, AAV8-Hmgb2 or a control AAV8-GFP was given to mice by tail vein injection at a dose of 5×10^10 GC. To knockdown HMGB2 in mouse livers, AAV-shHmgb2 or a control AAV-shGFP was delivered to mice at a dose of 2×10^10 GC by tail vein injection. One week later, mice injected with AAVs were treated with CCl4 or CCl4 +ICM as described above and sacrificed. […]

Smad signaling = Smad signaling in LX2 cells (Western blot); assay type: cell-based, human; details: LX2 cells (FIG. 5C)
Description: Western Blotting: Total protein lysates were prepared from livers and cells in lysis buffer containing 50 mM Tris, pH 8.0, 1% Nonidet™ P-40, 150 mM NaCl, 0.5% sodium deoxycholate, 0.1% SDS with protease inhibitors (Thermo Fisher Scientific) and subjected to immunoblotting. Nuclear and cytoplasmic subcellular fractions were prepared using NE-PER nuclear and cytoplasmic extraction reagents (Pierce) according to the manufacturer's instructions. The blot was incubated with a primary antibody, followed by a secondary antibody conjugated to horseradish peroxidase. ECL kit (Pierce) was used to detect the reactivity. The following antibodies were obtained from Cell Signaling Technology: HMGB2, HMGB1, AKT, p-AKT, mTOR, p-mTOR, ERK1/2, pERK1/2, Raptor, Rictor, p53, p21, p-Bad, Smad4, p-Smad2/3, Lamin A/C, a-SMA, MMP2, MMP9, TIMP1, RhoA, Rho-GTP, Cdc42, Rac1/2/3. Anti-HA antibody and anti-beta actin antibody were purchased from Sigma and Santa Cruz Biotechnology, respectively.
Cell Lines The LX-2 human stellate cell line was maintained in Dulbecco's Modified Eagle's Medium (DMEM) supplemented with 2% fetal bovine serum (FBS), 100 IU/ml penicillin, and 100 μg/ml streptomycin. Human hepatocellular carcinoma (HCC) MHCC97H cells were maintained in DMEM supplemented with 10% FBS, 100 IU/ml penicillin, and 100 μg/ml streptomycin, 1 mM HEPES, 1 mM sodium pyruvate, 2 mM L-glutamine. […]

HMGB1 and HMGB2 = details: neuroinflammation model; cited from earlier work
HMGB2 = target: T2, HMGB2 (Homo sapiens, UniProt P26583); assay: Co-immunoprecipitation of acetylated / phosphorylated HMGB2 in LX-2 cells; assay type: cell-based; design: Total protein lysates were prepared from livers and cells in lysis buffer; endogenous in cells; host or cells: LX-2; details: CCl4 and ICM for 24 hours (FIG. 5D)
T2 sequence (P26583 1-209): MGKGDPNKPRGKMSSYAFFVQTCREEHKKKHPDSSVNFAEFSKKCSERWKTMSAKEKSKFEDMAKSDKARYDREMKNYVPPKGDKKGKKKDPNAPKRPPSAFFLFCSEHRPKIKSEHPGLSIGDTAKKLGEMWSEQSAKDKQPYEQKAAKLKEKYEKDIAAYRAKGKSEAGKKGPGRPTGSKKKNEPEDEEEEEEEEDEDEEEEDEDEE
Description: Co-immunoprecipitation experiments: LX-2 cells were transfected with a vector expressing HA-CBP with X-treineGENE™ transfection reagent (Sigma). 24 hours later, cells were treated with CCl4 and ICM for 24 hours. Cells then washed 2 times with cold phosphate buffered saline (PBS), lysed in buffer (50 mM Tris HCl, pH 7.4, 150 mM NaCl, 1 mM EDTA, and 1% TRITON X-1.00, and protease inhibitor). Protein extracts were incubated with anti-phosphoserin antibody or anti-acetylated lysin antibody (Cell signaling technology) overnight at 4° C. Protein A/G beads were added to the supernatants and incubated for 4 hours at 4° C. The beads were washed five times in NP-40 lysis buffer. Immune complexes were eluted by SDS—sample buffer, resolved on 10% SDS-PAGE and proceeded for immunoblotting with the indicated antibody.

In the case of `CC1(C)Oc2cc(O)ccc2C2C1=CCn1c(=O)n(-c3ccccc3)c(=O)n12` (centres unmarked) [ICM, inflachromene], the HMGB1 protein (HMGB1 protein) is given as “less effect on HMGB1 protein”, the Smad signaling (Smad signaling) is given as “decreases Smad signaling” and the “inhibitor profile HMGB1 / HMGB2” value (HMGB1 and HMGB2) is given as “dual inhibitor of both HMGB1 and HMGB2”. For the same compound, the “HMGB2 phosphorylation by CCl4” value (HMGB2) was “decreases” and the “HMGB2 acetylation by CBP/CCl4” value (HMGB2; HA-CBP) was “decreases”.
